Entries after “also recorded” stand apart in the source; their conditions may differ.
Tests used:
[1] = test system: primary human T cells modified with the CDK4 TCR and Zap70-PD1-zinc finger degrons; experiment: IMiD regulation of zinc finger degron CRASH-IT switches, CDK4 TCR T cells co-cultured with NKIRTIL006 tumor cells; format: cell-based; conditions: for restoration of activity levels (cytokine production, cell surface LAMP-1) by IMiD: IKZF1-based CRASH-IT switch (IKZF1 ZF2-ZF3 degron)
Description: Constructs containing various zinc finger degrons in MP71 Zap70-PD1-Zinc finger IRES-EGFP format were created using IKZF1 ZF2-3 degron containing sequence (Q13422, 141-197 aa), or IKZF3 ZF2-3 degron containing sequence (Q9UKT9, 142-198 aa), or ZFP91 ZF4-5 degron containing sequence (Q96JP5, 396-455 aa), ZNF276 ZF4-5 degron containing sequence (Q8N554, 520-579 aa), ZNF653 ZF4-5 degron containing sequence (Q96CK0, 552-611 aa), or ZNF692 ZF4-5 degron containing sequence (Q9BU19, 413-473 aa). For CRASH-IT switches encoding hybrid zinc finger degrons, the IKZF1 ZF2 beta turn sequence (FQCNQCGASFT) was replaced with beta turn sequences from ZNF653 ZF4 (LQCEICGYQCR), ZFP91 ZF4 (LQCEICGFTCR), ZNF276 ZF4 (LQCEVCGFQCR), or ZNF827 ZF1 (FQCPICGLVIK). For the CRASH-IT switch encoding ZFP91/IKZF1 hybrid zinc finger without IKZF1 ZF3 (single ZF), the IKZF1 ZF3 containing sequence (Q13422, 170-197 aa) was deleted from the Zap70-PD1-ZFP91/IKZF1 hybrid zinc finger (double ZF) construct.
(§1) T cells and NK cells were pretreated with the indicated concentrations of asunaprevir (MedChemExpress, #HY-14434), grazoprevir (MedChemExpress, #HY-15298), dTAG-13 (Tocris, #6605) or DMSO control in T cell media (RPMI/10% human serum/penicillin-streptomycin, 100 IU/ml IL2 and 5 ng/ml IL15) or NK cell media (RPMI/8% FCS/penicillin-streptomycin, 500 IU/ml IL2), respectively, for 24 hours before co-culture experiments. 100,000 T cells or NK cells and 100,000 of indicated tumor cells were mixed in T cell or NK cell media supplemented with golgi-plug (1:1000 dilution, BD, #51-2301KZ) and anti-LAMP1-APC (1:100 dilution, Biolegend, #328620) in the presence of indicated drugs or DMSO control in 96-well plates and incubated for 5 hours at 37° C.
After incubation, cells were washed once with PBS and stained with IR dye (Invitrogen, #L34976) at 1:400 dilution for 5 minutes at 4° C. Subsequently, cells were washed once with FACS buffer (PBS plus 0.5% BSA) and stained with anti-CD8-PerCP Cy5.5 (1:20 dilution, BD, #341050), anti-CD4 BV711 (1:50 dilution, Biolegend, #317440), anti-murine constant TCR-PE (in experiments with transduced TCRs, 1:200 dilution, BD, #553172) or cetuximab-PE (in experiments with transduced CAR construct containing truncated human EGFR reporter, 1:200 dilution, R&D Systems, #FAB9577P) for 20 minutes at 4° C. […]
(§2) Following permeabilization, cells were washed twice with BD perm/wash buffer (#51-2091KZ) and stained with anti-IFNγ-BV421 (1:100 dilution, BD, #564791), anti-IL-2-PE-Cy7 (1:100 dilution, BD, #560707) and anti-TNFα-BV650 (1:100 dilution, Biolegend, #502938) diluted in perm/wash buffer for 20 min at 4° C. Cells were then washed twice, resuspended in 100 μl FACS buffer and analyzed directly on a Fortessa Special Order analyzer. Data were analyzed using FlowJo and Prism 7 software.

NK cell line KHYG-1 = experiment: Cytokine release assay, KHYG-1 NK cells co-cultured with K562 tumor; format: cell-based, human; conditions: Zap70-PD1-FKBP12^F36V switch; 0.5 μM dTAG-13
Description: Human NK cell line KHYG-1 (DSMZ, Leibniz, Germany) was cultured in RPMI supplemented with 8% FBS and penicillin-streptomycin (100 IU/ml penicillin, 100 μg/ml streptomycin) containing 500 IU/ml IL-2 (Novartis). All cell lines were tested for mycoplasma using PCR based screening (Young et al, Nat Protoc. 2010 May; 5(5):929-34) and found negative.
24-well non treated cell culture plates were covered with 10 μg/ml retronectin (Takara, #T100B) overnight at 4° C. The next day, the retronectin solution was removed and wells were blocked with 2% BSA (Sigma-Aldrich, A9418-500g) in PBS for 30 minutes. […]
as §2

[2] = test system: primary human T cells modified with the CDK4 TCR; experiment: Cytokine release and degranulation assay, CDK4 TCR T cells with SMASh or FKBP12^F36V switch co-cultured with NKIRTIL006 tumor cells; format: cell-based
Description: as §1
(§3) After incubation, cells were washed once with PBS and stained with IR dye (Invitrogen, #L34976) at 1:400 dilution for 5 minutes at 4° C. […]
as §2

NKIRTIL006 tumor cells = experiment: 51Cr release cytotoxicity assay; format: cell-based, human; conditions: 0.5 μM dTAG-13 vs DMSO
Description: Culture media of Zap70-PD1-FKBP^F36V expressing cells is supplemented with 0.5 μM dTAG-13 PROTAC starting one day before cell sorting until 4 days before ^51Cr assay. Primary human T cells modified with the CDK4 TCR plus either the Zap70-PD1-FKBP^F36V switch or IRES-EGFP vector control were sorted on a Beckman Coulter Moflo Astrios using an 80 μM nozzle. Cells were cultured in standard T cell culturing conditions in RPMI/10 human serum/penicillin-streptomycin 100 IU/ml IL-2 and 5 ng/ml IL-15 for 7 days.
After this, cells were expanded using a rapid expansion protocol (REP). […] At day 6, culture media is refreshed with 3000 IU/ml IL-2 containing media and cultures were split into 2 every 3 days with media containing IL-2 (3000 IU/ml final concentration). At day 12, cells were switched to standard T cell culturing conditions (RPMI/10% human serum/penicillin-streptomycin/100 IU/ml IL-2 and 5 ng/ml IL-15) for 3 days, until use in ^51Cr assays.
One day prior to ^51Cr assay, T cells were pretreated with 0.5 μM dTAG-13 PROTAC or DMSO in standard T cell culturing conditions in RPMI/10% human serum/penicillin-streptomycin/100 IU/ml IL-2 and 5 ng/ml IL-15. 5×10^5 tumor cells were resuspended in 100 μl media, mixed gently with 100 ρCi ^51Cr and then incubated at 37° C. for 45 minutes. […]

[3] = test system: anti-CD19-CD28-CD3ζ chain CAR modified human T cells; experiment: Cytokine release and degranulation assay, anti-CD19-CD28-CD3ζ CAR T cells co-cultured with Raji or Daudi; format: cell-based; conditions: co-culture with CD19 positive Raji or Daudi; 10 μM asunaprevir
Description: as §1, §3, §2

[4] = test system: primary human T cells modified with the HLA class I restricted CDK4 TCR; experiment: Cytokine release and degranulation assay, CDK4 TCR T cells co-cultured with CDK4 peptide loaded T2 cells; format: cell-based
Description: (§4) For use as T cell targets, T2 and CBH 5477 cells were loaded with the indicated concentrations of HLA-A*02:01 restricted mutant CDK4 peptide (ALDPHSGHFV), HLA A*02:01 restricted NY-ESO-1 peptide (SLLMWITQA), or HLA-DR1 restricted CMV peptide (KYQEFFWDANDIYRI) in IMDM for 1 hour at 37° C. Cells were then washed once and used in co-culture experiments.
as §1
After incubation, cells were washed once with PBS and stained with IR dye (Invitrogen, #L34976) at 1:400 dilution for 5 minutes at 4° C. Subsequently, cells were washed once with FACS buffer (PBS plus 0.5% BSA) and stained with anti-CD8-PerCP Cy5.5 (1:20 dilution, BD, #341050), anti-CD4 BV711 (1:50 dilution, Biolegend, #317440), anti-murine constant TCR-PE (in experiments with transduced TCRs, 1:200 dilution, BD, #553172) or cetuximab-PE (in experiments with transduced CAR construct containing truncated human EGFR reporter, 1:200 dilution, R&D Systems, #FAB9577P) for 20 minutes at 4° C. Cells were then washed once with FACS buffer and fixed with BD fixation and permeabilization solution (#51-2090KZ) for 20 minutes at 4° C.
as §2

[5] = test system: CD8 T cells modified with an NY-ESO-1 shared antigen specific TCR; experiment: Cytokine release and degranulation assay, NY-ESO-1 TCR T cells co-cultured with NY-ESO-1 peptide loaded T2 cells; format: cell-based, human; conditions: 10 μM asunaprevir
Description: as §4
T cells and NK cells were pretreated with the indicated concentrations of asunaprevir (MedChemExpress, #HY-14434), grazoprevir (MedChemExpress, #HY-15298), dTAG-13 (Tocris, #6605) or DMSO control in T cell media (RPMI/10% human serum/penicillin-streptomycin, 100 IU/ml IL2 and 5 ng/ml IL15) or NK cell media (RPMI/8% FCS/penicillin-streptomycin, 500 IU/ml IL2), respectively, for 24 hours before co-culture experiments. […]
as §2

[6] = Zap70-PD1-SMASh T cells, 10 μM asunaprevir relative to DMSO-treated cells, peptide-loaded target cells (10 nM)

## Nc1cccc2c1C(=O)N(C1CCC(=O)NC1=O)C2=O (centres unmarked) [pomalidomide]
[1]
  restoration of activity levels (cytokine production, cell surface LAMP-1) by IMiD: robustly restored

## CC[C@H](C(=O)N1CCCC[C@H]1C(=O)O[C@H](CCc1ccc(OC)c(OC)c1)c1ccccc1OCC(=O)NCCCCCCOc1cccc2c1C(=O)N(C1CCC(=O)NC1=O)C2=O)c1cc(OC)c(OC)c(OC)c1 (some centres unmarked) [dTAG-13]
NK cell line KHYG-1
  suppression of NK cell cytokine production in the presence of drug: reversed
[2]; FKBP12^F36V/dTAG-13 based switches, high drug concentrations
  reactivation of T cell function at high drug concentrations: suboptimal reactivation of T cell function
[2]; small-molecule titration, Zap70-PD1-FKBP12^F36V (dTAG-13) or Zap70-PD1-SMASh (HCV NS3/4A inhibitors)
  concentration at which activation of CRASH-IT platform peaks: around 0.5 μM
NKIRTIL006 tumor cells
  cytotoxic activity of control vector-modified T cells: unaltered
  killing of 51Cr loaded NKIRTIL006 tumor cells by sorted CD8 cells with Zap70-PD1-FKBP12^F36V: increased killing

## Nc1cccc2c1CN(C1CCC(=O)NC1=O)C2=O (centres unmarked) [lenalidomide]
[1]
  restoration of activity levels (cytokine production, cell surface LAMP-1) by IMiD: robustly restored

## C=C[C@@H]1C[C@]1(NC(=O)[C@@H]1C[C@@H](Oc2ncc(OC)c3ccc(Cl)cc23)CN1C(=O)[C@@H](NC(=O)OC(C)(C)C)C(C)(C)C)C(=O)NS(=O)(=O)C1CC1 [asunaprevir]
[3]
  T cell functions of CAR T cells with Zap70-PD1-SMASh upon drug addition: recovered
[4]; [6]
  boost of CD8+ T cell activation, IFNγ: 8.8 fold
  boost of CD8+ T cell activation, IL2: 11.5 fold
  boost of CD8+ T cell activation, TNFα: 6.3 fold
  boost of CD8+ T cell activation, cell surface LAMP1 expression: 6.6 fold
[4]; primary human CD8 and CD4 T cells with Zap70-PD1-SMASh
  drug effect on inhibition of T cell function by Zap70-PD1-SMASh: reverted; also recorded: dose dependent recovery
[4]; vector control T cells, protease inhibitor
  effector functions of Zap70-PD1-SMASh fusion protein-negative T cells (vector control): unaltered
[5]
  functional activity of NY-ESO-1 TCR CD8 T cells with CRASH-IT switch upon drug addition: restored

## O=C1CCC(N2C(=O)c3ccccc3C2=O)C(=O)N1 (centres unmarked) [thalidomide]
[1]
  restoration of activity levels (cytokine production, cell surface LAMP-1) by IMiD: lesser
[1]; T cells expressing the chimeric degrons as compared to the parental IKZF1 ZF2-3 degron
  reduction of thalidomide concentration required for the same level of cytokine production (IFNγ, IL-2, or TNFα) or surface LAMP-1 expression: around 1,000 fold
